Measurements as given in the kinase profiling compilation of Christmann-Franck et al. (2016).

Legend:
Assay in all cases: KINOMEscan competition binding
Settings in all cases: compound 10.0 µM; call rule not given here
ADCK4 (human) = ADCK4 (human) (UniProt Q96D53)
AKT3 (human) = AKT3 (human) (UniProt Q9Y243)
CAMK2D (human) = CAMK2D (human) (UniProt Q13557)
CAMK2G (human) = CAMK2G (human) (UniProt Q13555)
CAMKK2 (human) = CAMKK2 (human) (UniProt Q96RR4)
CLK1 (human) = CLK1 (human) (UniProt P49759)
CLK3 (human) = CLK3 (human) (UniProt P49761)
EPHA6 (human) = EPHA6 (human) (UniProt Q9UF33)
EPHB3 (human) = EPHB3 (human) (UniProt P54753)
ERBB2 (human) = ERBB2 (human) (UniProt P04626)
ERBB4 (human) = ERBB4 (human) (UniProt Q15303)
FGFR1 (human) = FGFR1 (human) (UniProt P11362)
FGFR4 (human) = FGFR4 (human) (UniProt P22455)
IGF1R (human) = IGF1R (human) (UniProt P08069)
INSRR (human) = INSRR (human) (UniProt P14616)
LIMK2 (human) = LIMK2 (human) (UniProt P53671)
LTK (human) = LTK (human) (UniProt P29376)
MAPK1 (human) = MAPK1 (human) (UniProt P28482)
MUSK (human) = MUSK (human) (UniProt O15146)
NEK2 (human) = NEK2 (human) (UniProt P51955)
NEK6 (human) = NEK6 (human) (UniProt Q9HC98)
PAK2 (human) = PAK2 (human) (UniProt Q13177)
PAK3 (human) = PAK3 (human) (UniProt O75914)
PAK4 (human) = PAK4 (human) (UniProt O96013)
PHKG2 (human) = PHKG2 (human) (UniProt P15735)
PIM1 (human) = PIM1 (human) (UniProt P11309)
PIM2 (human) = PIM2 (human) (UniProt Q9P1W9)
PLK3 (human) = PLK3 (human) (UniProt Q9H4B4)
PRKCH (human) = PRKCH (human) (UniProt P24723)
RIPK2 (human) = RIPK2 (human) (UniProt O43353)
ROS1 (human) = ROS1 (human) (UniProt P08922)
RPS6KA1 KD1 (human) = RPS6KA1 KD1 (human) (UniProt Q15418)
RPS6KA5 KD1 (human) = RPS6KA5 KD1 (human) (UniProt O75582)
RPS6KA6 KD1 (human) = RPS6KA6 KD1 (human) (UniProt Q9UK32)
STK32C (human) = STK32C (human) (UniProt Q86UX6)
TXK (human) = TXK (human) (UniProt P42681)
AKT1 (human) = AKT1 (human) (UniProt P31749)
PRKACB (human) = PRKACB (human) (UniProt P22694)
PRKCA (human) = PRKCA (human) (UniProt P17252)
PRKX (human) = PRKX (human) (UniProt P51817)

Sequence of CAMK2D (human) (Q13557 whole entry, looked up): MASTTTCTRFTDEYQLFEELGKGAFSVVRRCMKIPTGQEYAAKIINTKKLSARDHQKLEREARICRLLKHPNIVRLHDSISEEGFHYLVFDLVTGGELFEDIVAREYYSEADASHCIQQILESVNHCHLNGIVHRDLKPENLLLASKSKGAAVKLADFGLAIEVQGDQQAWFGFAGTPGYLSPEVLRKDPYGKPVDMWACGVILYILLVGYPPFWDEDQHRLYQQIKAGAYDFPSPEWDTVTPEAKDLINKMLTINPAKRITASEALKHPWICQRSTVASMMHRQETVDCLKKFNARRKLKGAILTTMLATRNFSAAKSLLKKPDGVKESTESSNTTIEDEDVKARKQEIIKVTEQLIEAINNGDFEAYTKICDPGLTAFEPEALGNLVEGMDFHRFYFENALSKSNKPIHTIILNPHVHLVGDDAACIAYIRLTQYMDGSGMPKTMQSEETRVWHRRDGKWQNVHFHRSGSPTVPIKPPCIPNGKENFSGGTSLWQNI
Sequence of RIPK2 (human) (O43353 whole entry, looked up): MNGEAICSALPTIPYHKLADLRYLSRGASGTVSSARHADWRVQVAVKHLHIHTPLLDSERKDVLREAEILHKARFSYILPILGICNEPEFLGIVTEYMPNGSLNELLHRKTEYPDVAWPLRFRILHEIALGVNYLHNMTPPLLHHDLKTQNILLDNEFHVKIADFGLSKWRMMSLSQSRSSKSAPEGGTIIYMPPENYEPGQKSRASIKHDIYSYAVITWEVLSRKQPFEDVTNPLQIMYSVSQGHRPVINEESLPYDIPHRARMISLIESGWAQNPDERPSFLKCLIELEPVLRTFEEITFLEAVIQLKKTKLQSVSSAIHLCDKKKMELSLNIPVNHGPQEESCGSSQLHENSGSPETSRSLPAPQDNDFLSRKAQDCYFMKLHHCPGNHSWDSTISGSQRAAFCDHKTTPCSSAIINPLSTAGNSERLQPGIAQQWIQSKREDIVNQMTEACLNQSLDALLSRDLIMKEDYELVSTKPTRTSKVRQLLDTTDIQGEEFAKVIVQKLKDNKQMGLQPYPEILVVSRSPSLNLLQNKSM
Sequence of ROS1 (human) (P08922 whole entry, looked up): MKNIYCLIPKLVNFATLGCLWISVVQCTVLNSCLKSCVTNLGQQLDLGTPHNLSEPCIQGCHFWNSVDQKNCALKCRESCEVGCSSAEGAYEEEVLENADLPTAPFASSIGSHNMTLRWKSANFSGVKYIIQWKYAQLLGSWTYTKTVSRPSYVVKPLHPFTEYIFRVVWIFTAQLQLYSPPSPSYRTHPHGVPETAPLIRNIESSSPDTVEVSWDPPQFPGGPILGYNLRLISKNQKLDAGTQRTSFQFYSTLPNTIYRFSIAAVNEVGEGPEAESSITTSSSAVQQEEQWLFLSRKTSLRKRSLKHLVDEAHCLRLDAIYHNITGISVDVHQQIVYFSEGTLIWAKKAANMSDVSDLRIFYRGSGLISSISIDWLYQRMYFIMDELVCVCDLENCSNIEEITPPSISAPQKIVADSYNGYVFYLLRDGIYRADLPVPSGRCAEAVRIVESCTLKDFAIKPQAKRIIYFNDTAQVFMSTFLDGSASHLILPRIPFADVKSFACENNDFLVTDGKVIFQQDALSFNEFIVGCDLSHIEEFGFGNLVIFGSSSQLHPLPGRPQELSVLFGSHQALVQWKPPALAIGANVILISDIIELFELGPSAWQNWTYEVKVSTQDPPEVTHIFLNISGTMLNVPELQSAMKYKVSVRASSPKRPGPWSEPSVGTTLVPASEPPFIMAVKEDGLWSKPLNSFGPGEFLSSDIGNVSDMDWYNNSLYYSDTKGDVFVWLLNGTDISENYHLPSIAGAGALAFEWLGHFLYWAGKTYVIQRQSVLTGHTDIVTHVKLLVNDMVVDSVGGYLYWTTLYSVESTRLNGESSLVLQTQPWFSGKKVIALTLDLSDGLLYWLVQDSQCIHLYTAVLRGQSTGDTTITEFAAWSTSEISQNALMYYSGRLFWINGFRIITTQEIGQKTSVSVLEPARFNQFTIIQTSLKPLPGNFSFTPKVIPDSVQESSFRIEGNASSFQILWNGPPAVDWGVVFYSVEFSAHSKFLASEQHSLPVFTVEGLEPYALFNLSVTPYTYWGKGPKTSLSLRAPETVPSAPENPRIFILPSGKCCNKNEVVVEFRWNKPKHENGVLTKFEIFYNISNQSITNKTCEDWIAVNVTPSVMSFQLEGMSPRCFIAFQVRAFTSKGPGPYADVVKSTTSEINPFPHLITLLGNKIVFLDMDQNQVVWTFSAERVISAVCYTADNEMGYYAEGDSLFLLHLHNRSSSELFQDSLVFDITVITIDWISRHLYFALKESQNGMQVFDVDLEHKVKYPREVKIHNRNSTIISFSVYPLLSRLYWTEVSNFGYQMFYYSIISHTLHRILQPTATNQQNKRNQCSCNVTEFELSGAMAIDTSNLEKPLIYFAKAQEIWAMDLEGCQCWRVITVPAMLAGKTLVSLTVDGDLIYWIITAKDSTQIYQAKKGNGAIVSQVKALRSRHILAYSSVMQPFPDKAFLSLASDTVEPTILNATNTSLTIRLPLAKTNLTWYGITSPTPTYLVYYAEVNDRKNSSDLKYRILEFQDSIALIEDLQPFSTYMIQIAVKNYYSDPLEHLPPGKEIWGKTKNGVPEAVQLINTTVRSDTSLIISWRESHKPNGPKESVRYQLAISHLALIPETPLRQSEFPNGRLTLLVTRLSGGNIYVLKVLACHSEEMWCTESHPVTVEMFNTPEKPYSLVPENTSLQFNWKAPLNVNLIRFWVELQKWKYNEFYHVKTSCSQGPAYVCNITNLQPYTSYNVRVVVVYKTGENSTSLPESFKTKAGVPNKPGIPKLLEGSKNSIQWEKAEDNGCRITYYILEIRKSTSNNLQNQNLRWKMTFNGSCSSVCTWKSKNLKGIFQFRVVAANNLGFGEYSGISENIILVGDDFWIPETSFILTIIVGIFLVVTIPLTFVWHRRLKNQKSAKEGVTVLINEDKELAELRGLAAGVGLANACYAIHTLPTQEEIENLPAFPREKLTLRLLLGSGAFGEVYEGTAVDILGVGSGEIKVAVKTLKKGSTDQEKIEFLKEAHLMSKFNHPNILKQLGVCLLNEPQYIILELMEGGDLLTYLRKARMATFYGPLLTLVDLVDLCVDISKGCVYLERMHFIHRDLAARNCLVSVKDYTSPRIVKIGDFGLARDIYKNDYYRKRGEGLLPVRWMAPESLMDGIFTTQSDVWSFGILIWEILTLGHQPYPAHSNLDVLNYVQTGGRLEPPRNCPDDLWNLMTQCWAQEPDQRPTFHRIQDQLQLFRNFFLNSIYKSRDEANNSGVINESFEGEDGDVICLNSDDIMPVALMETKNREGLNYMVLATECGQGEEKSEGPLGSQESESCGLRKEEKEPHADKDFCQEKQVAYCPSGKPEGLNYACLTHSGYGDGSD
Sequence of NEK2 (human) (P51955 whole entry, looked up): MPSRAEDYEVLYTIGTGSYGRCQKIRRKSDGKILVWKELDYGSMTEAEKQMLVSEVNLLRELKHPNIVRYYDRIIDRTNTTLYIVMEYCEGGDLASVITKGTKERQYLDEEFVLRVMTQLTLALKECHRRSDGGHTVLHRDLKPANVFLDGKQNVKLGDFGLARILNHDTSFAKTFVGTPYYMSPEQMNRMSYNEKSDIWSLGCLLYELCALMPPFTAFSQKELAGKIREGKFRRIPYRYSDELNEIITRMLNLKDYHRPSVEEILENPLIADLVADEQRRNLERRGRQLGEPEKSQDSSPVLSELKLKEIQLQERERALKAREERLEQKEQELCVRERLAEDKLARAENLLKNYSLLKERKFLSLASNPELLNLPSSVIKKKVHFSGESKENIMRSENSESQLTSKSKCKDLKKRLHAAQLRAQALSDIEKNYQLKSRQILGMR
Sequence of AKT3 (human) (Q9Y243 whole entry, looked up): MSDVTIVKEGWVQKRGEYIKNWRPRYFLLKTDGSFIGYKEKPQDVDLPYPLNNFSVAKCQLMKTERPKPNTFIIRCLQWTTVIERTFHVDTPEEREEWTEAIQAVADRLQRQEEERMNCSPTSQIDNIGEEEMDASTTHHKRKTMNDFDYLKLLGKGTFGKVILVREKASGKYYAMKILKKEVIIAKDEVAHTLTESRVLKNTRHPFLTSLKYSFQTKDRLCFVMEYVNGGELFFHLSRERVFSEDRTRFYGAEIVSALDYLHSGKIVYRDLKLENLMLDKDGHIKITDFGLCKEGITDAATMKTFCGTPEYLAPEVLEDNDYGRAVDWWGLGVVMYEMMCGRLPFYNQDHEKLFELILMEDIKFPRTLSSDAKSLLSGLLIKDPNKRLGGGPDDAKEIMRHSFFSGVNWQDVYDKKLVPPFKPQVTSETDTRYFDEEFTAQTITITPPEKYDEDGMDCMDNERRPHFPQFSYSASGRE
Sequence of PHKG2 (human) (P15735 whole entry, looked up): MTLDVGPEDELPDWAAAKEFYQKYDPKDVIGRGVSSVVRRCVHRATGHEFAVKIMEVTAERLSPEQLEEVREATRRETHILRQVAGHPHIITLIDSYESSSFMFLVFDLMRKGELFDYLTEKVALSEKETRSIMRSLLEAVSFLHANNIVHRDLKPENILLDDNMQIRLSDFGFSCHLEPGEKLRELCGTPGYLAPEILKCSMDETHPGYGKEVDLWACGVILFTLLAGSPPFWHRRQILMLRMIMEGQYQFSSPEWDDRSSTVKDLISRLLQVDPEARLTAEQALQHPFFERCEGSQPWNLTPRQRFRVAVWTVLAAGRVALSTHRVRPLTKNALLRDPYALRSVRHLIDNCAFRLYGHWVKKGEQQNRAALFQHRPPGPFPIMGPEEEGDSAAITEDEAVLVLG
Sequence of MAPK1 (human) (P28482 whole entry, looked up): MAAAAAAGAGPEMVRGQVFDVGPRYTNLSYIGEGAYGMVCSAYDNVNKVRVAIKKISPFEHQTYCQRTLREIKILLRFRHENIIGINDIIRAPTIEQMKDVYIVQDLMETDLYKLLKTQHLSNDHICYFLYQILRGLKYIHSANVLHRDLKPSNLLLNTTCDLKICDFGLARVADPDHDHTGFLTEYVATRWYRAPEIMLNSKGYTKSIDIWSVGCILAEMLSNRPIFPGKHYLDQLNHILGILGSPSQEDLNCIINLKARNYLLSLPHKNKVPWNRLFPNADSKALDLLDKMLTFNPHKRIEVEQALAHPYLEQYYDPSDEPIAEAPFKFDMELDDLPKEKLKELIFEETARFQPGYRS

Row | SMILES | kinase still bound, per cent of control (ADCK4 (human)) | kinase still bound, per cent of control (AKT3 (human)) | kinase still bound, per cent of control (CAMK2D (human)) | kinase still bound, per cent of control (CAMK2G (human)) | kinase still bound, per cent of control (CAMKK2 (human)) | kinase still bound, per cent of control (CLK1 (human)) | kinase still bound, per cent of control (CLK3 (human)) | kinase still bound, per cent of control (EPHA6 (human)) | kinase still bound, per cent of control (EPHB3 (human)) | kinase still bound, per cent of control (ERBB2 (human)) | kinase still bound, per cent of control (ERBB4 (human)) | kinase still bound, per cent of control (FGFR1 (human)) | kinase still bound, per cent of control (FGFR4 (human)) | kinase still bound, per cent of control (IGF1R (human)) | kinase still bound, per cent of control (INSRR (human)) | kinase still bound, per cent of control (LIMK2 (human)) | kinase still bound, per cent of control (LTK (human)) | kinase still bound, per cent of control (MAPK1 (human)) | kinase still bound, per cent of control (MUSK (human)) | kinase still bound, per cent of control (NEK2 (human)) | other results
1 | NC(=O)c1ccc(-c2cc(C(N)=O)c(N)c(-c3ccc(S(N)(=O)=O)cc3)c2)cc1 | no effect (inactive) | no effect (inactive) | no effect (inactive) | no effect (inactive) | no effect (inactive) | no effect (inactive) | no effect (inactive) | no effect (inactive) | no effect (inactive) | no effect (inactive) | no effect (inactive) | no effect (inactive) | no effect (inactive) | no effect (inactive) | no effect (inactive) | no effect (inactive) | no effect (inactive) | no effect (inactive) | no effect (inactive) | no effect (inactive) | kinase still bound, per cent of control (NEK6 (human)): no effect (inactive); kinase still bound, per cent of control (PAK2 (human)): no effect (inactive); kinase still bound, per cent of control (PAK3 (human)): no effect (inactive); kinase still bound, per cent of control (PAK4 (human)): no effect (inactive); kinase still bound, per cent of control (PHKG2 (human)): no effect (inactive); kinase still bound, per cent of control (PIM1 (human)): no effect (inactive); kinase still bound, per cent of control (PIM2 (human)): no effect (inactive); kinase still bound, per cent of control (PLK3 (human)): no effect (inactive); kinase still bound, per cent of control (PRKCH (human)): no effect (inactive); kinase still bound, per cent of control (RIPK2 (human)): no effect (inactive); kinase still bound, per cent of control (ROS1 (human)): no effect (inactive); kinase still bound, per cent of control (RPS6KA1 KD1 (human)): no effect (inactive); kinase still bound, per cent of control (RPS6KA5 KD1 (human)): no effect (inactive); kinase still bound, per cent of control (RPS6KA6 KD1 (human)): no effect (inactive); kinase still bound, per cent of control (STK32C (human)): no effect (inactive); kinase still bound, per cent of control (TXK (human)): no effect (inactive)
2 | Cc1ccc(NC(=O)c2cccc(N3CCCCC3)c2)cc1-c1ccc(C(=O)NCC2CC2)cc1 | no effect (inactive) | no effect (inactive) | no effect (inactive) | no effect (inactive) | no effect (inactive) | no effect (inactive) | no effect (inactive) | no effect (inactive) | no effect (inactive) | no effect (inactive) | no effect (inactive) | no effect (inactive) | no effect (inactive) | no effect (inactive) | no effect (inactive) | no effect (inactive) | no effect (inactive) | no effect (inactive) | no effect (inactive) | no effect (inactive) | kinase still bound, per cent of control (AKT1 (human)): no effect (inactive); kinase still bound, per cent of control (NEK6 (human)): no effect (inactive); kinase still bound, per cent of control (PAK2 (human)): no effect (inactive); kinase still bound, per cent of control (PAK3 (human)): no effect (inactive); kinase still bound, per cent of control (PAK4 (human)): no effect (inactive); kinase still bound, per cent of control (PHKG2 (human)): no effect (inactive); kinase still bound, per cent of control (PIM1 (human)): no effect (inactive); kinase still bound, per cent of control (PIM2 (human)): no effect (inactive); kinase still bound, per cent of control (PLK3 (human)): no effect (inactive); kinase still bound, per cent of control (PRKACB (human)): no effect (inactive); kinase still bound, per cent of control (PRKCA (human)): no effect (inactive); kinase still bound, per cent of control (PRKCH (human)): no effect (inactive); kinase still bound, per cent of control (PRKX (human)): no effect (inactive); kinase still bound, per cent of control (RIPK2 (human)): no effect (inactive); kinase still bound, per cent of control (ROS1 (human)): no effect (inactive); kinase still bound, per cent of control (RPS6KA1 KD1 (human)): no effect (inactive); kinase still bound, per cent of control (RPS6KA5 KD1 (human)): no effect (inactive); kinase still bound, per cent of control (RPS6KA6 KD1 (human)): no effect (inactive); kinase still bound, per cent of control (STK32C (human)): no effect (inactive); kinase still bound, per cent of control (TXK (human)): no effect (inactive)
3 | CCS(=O)(=O)Nc1ccc2c(c1)[C@H](/C(=N/c1ccc(CN3CCCCC3)cc1)c1ccccc1)C(=O)N2 | no effect (inactive) | no effect (inactive) | 2% | 0.2% | 0.1% | 0% | 2.3% | 0% | 7.2% | no effect (inactive) | 34.7% | 0% | 0% | 0% | 0% | no effect (inactive) | 0% | 14% | 0% | 0% | kinase still bound, per cent of control (AKT1 (human)): no effect (inactive); kinase still bound, per cent of control (NEK6 (human)): no effect (inactive); kinase still bound, per cent of control (PAK2 (human)): no effect (inactive); kinase still bound, per cent of control (PAK3 (human)): 0%; kinase still bound, per cent of control (PAK4 (human)): 0.2%; kinase still bound, per cent of control (PHKG2 (human)): 0%; kinase still bound, per cent of control (PIM1 (human)): 12.8%; kinase still bound, per cent of control (PIM2 (human)): no effect (inactive); kinase still bound, per cent of control (PLK3 (human)): no effect (inactive); kinase still bound, per cent of control (PRKACB (human)): 7%; kinase still bound, per cent of control (PRKCA (human)): 2.5%; kinase still bound, per cent of control (PRKCH (human)): 19.2%; kinase still bound, per cent of control (PRKX (human)): 24.8%; kinase still bound, per cent of control (RIPK2 (human)): 6.9%; kinase still bound, per cent of control (ROS1 (human)): 0%; kinase still bound, per cent of control (RPS6KA1 KD1 (human)): 0%; kinase still bound, per cent of control (RPS6KA5 KD1 (human)): 0%; kinase still bound, per cent of control (RPS6KA6 KD1 (human)): 0%; kinase still bound, per cent of control (STK32C (human)): no effect (inactive); kinase still bound, per cent of control (TXK (human)): 0%
